Assays:
Assay in all cases: Kinase panel profiling
Assay type in all cases: biochemical
Conditions in all cases: 10 μM ATP
AKT2 = molecular target: T1, AKT2 (Homo sapiens, UniProt P31751)
T1 construct: purchased Reaction Biology Corp
Protocol: (§1) Kinase panel profiling was conducted by Reaction Biology Corp. (San Diego, CA, USA). A single dose (1.0 μM) of 6r was tested against 371 recombinant human kinases in the presence of 10 μM ATP.

BLK = molecular target: T2, BLK (Homo sapiens, UniProt P51451)
T2 construct: purchased Reaction Biology Corp
Protocol: as §1

BRAF = molecular target: T3, BRAF (Homo sapiens, UniProt P15056)
T3 construct: purchased Reaction Biology Corp
Protocol: as §1

BRSK1 = molecular target: T4, BRSK1 (Homo sapiens, UniProt Q8TDC3)
T4 construct: purchased Reaction Biology Corp
Protocol: as §1

CAMK2a = molecular target: T5, CAMK2a (Homo sapiens, UniProt Q9UQM7)
T5 construct: purchased Reaction Biology Corp
Protocol: as §1

CDK14/cyclin Y (PFTK1) = molecular target: T6, CDK14/cyclin Y (PFTK1) (Homo sapiens, UniProt O94921)
T6 construct: purchased Reaction Biology Corp
Protocol: as §1

CDK3/cyclin E = molecular target: T7, CDK3/cyclin E (Homo sapiens, UniProt Q00526)
T7 construct: purchased Reaction Biology Corp
Protocol: as §1

CDK3/cyclin E2 = molecular target: T8, CDK3/cyclin E2 (Homo sapiens, UniProt Q00526)
T8 construct: purchased Reaction Biology Corp
Protocol: as §1

CK1g1 = molecular target: T9, CK1g1 (Homo sapiens, UniProt Q9HCP0)
T9 construct: purchased Reaction Biology Corp
T9 sequence (Q9HCP0 whole entry): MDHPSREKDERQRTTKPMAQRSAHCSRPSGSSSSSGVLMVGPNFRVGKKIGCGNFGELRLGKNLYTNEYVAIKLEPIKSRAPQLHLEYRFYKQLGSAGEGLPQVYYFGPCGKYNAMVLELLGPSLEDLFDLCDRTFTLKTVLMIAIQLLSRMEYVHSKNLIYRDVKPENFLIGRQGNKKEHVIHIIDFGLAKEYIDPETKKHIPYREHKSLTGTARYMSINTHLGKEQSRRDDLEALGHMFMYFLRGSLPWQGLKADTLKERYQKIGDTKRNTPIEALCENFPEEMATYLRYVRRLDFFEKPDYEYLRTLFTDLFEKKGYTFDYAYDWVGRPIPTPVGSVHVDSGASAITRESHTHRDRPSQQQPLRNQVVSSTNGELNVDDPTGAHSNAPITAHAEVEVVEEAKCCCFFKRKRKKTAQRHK
Protocol: as §1

CLK2 = molecular target: T10, CLK2 (Homo sapiens, UniProt P49760)
T10 construct: purchased Reaction Biology Corp
Protocol: as §1

DAPK1 = molecular target: T11, DAPK1 (Homo sapiens, UniProt P53355)
T11 construct: purchased Reaction Biology Corp
Protocol: as §1

DYRK3 = molecular target: T12, DYRK3 (Homo sapiens, UniProt O43781)
T12 construct: purchased Reaction Biology Corp
Protocol: as §1

EPHA2 = molecular target: T13, EPHA2 (Homo sapiens, UniProt P29317)
T13 construct: purchased Reaction Biology Corp
Protocol: as §1

EPHA3 = molecular target: T14, EPHA3 (Homo sapiens, UniProt P29320)
T14 construct: purchased Reaction Biology Corp
Protocol: as §1

EPHB1 = molecular target: T15, EPHB1 (Homo sapiens, UniProt P54762)
T15 construct: purchased Reaction Biology Corp
T15 sequence (P54762 18-984): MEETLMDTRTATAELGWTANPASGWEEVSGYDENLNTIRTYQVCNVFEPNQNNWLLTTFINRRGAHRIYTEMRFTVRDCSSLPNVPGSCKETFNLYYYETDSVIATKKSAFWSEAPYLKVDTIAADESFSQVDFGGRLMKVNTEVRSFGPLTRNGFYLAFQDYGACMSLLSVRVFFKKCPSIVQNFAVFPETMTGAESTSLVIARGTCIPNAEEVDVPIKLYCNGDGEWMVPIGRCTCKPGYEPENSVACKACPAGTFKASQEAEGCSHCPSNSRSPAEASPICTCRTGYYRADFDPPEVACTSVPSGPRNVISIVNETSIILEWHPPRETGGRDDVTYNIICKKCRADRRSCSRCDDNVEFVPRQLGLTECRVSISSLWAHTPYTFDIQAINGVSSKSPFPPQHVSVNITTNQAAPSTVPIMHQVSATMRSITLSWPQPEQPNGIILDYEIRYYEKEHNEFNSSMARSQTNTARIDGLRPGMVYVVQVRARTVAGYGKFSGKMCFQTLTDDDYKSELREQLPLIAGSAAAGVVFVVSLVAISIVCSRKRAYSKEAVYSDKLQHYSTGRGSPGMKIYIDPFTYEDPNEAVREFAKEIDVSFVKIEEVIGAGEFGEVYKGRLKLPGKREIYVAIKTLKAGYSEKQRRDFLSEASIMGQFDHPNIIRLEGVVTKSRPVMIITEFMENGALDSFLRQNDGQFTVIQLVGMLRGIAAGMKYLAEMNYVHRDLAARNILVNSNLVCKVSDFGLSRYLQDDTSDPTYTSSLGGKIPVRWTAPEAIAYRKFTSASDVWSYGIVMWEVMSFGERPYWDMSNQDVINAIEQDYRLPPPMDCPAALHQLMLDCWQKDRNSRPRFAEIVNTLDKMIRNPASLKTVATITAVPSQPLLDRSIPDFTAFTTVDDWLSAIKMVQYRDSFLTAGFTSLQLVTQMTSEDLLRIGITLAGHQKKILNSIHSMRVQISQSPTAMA
Protocol: as §1

EPHB4 = molecular target: T16, EPHB4 (Homo sapiens, UniProt P54760)
T16 construct: purchased Reaction Biology Corp
Protocol: as §1

FAK/PTK2 = molecular target: T17, FAK/PTK2 (Homo sapiens, UniProt Q05397)
T17 construct: purchased Reaction Biology Corp
Protocol: as §1

GCK/MAP4K2 = molecular target: T18, GCK/MAP4K2 (Homo sapiens, UniProt Q12851)
T18 construct: purchased Reaction Biology Corp
Protocol: as §1

GRK7 = molecular target: T19, GRK7 (Homo sapiens, UniProt Q8WTQ7)
T19 construct: purchased Reaction Biology Corp
Protocol: as §1

JNK1 = molecular target: T20, JNK1 (Homo sapiens, UniProt P45983)
T20 construct: purchased Reaction Biology Corp
Protocol: as §1

MARK1 = molecular target: T21, MARK1 (Homo sapiens, UniProt Q9P0L2)
T21 construct: purchased Reaction Biology Corp
T21 sequence (Q9P0L2 whole entry): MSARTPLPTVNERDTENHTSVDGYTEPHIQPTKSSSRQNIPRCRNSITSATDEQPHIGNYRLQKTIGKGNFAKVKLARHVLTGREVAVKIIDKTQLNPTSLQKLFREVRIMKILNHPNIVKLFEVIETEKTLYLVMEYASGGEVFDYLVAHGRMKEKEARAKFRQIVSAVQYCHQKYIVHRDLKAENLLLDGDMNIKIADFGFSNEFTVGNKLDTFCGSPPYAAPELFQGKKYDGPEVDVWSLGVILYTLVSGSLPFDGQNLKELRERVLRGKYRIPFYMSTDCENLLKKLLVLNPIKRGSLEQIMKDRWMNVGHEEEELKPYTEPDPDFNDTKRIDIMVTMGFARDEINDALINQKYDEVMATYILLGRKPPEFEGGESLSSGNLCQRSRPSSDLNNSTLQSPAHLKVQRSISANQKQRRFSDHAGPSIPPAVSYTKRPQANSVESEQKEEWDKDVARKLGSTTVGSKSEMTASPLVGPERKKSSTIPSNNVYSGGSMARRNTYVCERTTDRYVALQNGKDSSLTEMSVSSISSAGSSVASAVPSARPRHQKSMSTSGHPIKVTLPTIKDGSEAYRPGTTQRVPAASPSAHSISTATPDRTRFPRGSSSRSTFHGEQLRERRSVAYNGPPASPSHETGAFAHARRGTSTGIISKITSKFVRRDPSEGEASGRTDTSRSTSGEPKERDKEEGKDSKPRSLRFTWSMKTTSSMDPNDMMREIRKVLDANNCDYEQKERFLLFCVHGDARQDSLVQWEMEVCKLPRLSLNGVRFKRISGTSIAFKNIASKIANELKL
Protocol: as §1

MARK3 = molecular target: T22, MARK3 (Homo sapiens, UniProt P27448)
T22 construct: purchased Reaction Biology Corp
T22 sequence (P27448 whole entry): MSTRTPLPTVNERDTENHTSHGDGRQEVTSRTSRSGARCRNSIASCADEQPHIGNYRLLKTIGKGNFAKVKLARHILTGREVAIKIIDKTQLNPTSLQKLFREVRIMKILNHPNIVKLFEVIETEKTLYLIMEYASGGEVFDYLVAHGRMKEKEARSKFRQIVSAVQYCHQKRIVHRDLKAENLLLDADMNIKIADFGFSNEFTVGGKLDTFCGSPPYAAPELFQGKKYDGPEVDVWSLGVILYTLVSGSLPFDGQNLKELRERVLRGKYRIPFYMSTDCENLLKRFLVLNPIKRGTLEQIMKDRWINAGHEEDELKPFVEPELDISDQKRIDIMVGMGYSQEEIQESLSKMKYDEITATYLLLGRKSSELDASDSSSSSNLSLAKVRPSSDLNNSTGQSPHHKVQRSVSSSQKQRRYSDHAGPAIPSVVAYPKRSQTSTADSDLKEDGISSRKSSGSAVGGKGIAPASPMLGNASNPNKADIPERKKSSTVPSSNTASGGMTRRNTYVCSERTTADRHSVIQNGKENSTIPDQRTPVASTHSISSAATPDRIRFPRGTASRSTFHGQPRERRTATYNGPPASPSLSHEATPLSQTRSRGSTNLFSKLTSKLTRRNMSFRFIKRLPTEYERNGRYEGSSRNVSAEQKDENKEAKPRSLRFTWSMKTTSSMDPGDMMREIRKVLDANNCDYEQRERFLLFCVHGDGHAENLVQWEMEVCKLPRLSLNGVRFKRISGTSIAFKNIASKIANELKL
Protocol: as §1

MEK2 = molecular target: T23, MEK2 (Homo sapiens, UniProt P36507)
T23 construct: purchased Reaction Biology Corp
Protocol: as §1

MLCK/MYLK = molecular target: T24, MLCK/MYLK (Homo sapiens, UniProt Q15746)
T24 construct: purchased Reaction Biology Corp
Protocol: as §1

MLCK2/MYLK2 = molecular target: T25, MLCK2/MYLK2 (Homo sapiens, UniProt Q9H1R3)
T25 construct: purchased Reaction Biology Corp
Protocol: as §1

MLK4 = molecular target: T26, MLK4 (Homo sapiens, UniProt Q5TCX8)
T26 construct: purchased Reaction Biology Corp
Protocol: as §1

MST1/STK4 = molecular target: T27, MST1/STK4 (Homo sapiens, UniProt Q13043)
T27 construct: purchased Reaction Biology Corp
T27 sequence (Q13043 whole entry): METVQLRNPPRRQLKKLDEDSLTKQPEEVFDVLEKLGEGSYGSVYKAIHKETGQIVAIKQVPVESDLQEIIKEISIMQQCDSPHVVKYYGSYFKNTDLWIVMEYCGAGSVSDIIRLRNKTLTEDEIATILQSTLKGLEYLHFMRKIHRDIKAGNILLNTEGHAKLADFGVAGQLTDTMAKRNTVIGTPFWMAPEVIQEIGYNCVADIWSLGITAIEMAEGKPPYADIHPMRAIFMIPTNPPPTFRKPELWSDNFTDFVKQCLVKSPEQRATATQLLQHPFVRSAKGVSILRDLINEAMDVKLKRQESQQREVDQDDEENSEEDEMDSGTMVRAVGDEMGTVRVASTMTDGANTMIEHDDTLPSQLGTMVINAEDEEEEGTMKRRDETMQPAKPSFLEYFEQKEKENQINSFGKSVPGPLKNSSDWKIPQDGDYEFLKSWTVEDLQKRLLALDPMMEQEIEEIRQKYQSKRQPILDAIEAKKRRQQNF
Protocol: as §1

MYLK4 = molecular target: T28, MYLK4 (Homo sapiens, UniProt Q86YV6)
T28 construct: purchased Reaction Biology Corp
Protocol: as §1

NEK3 = molecular target: T29, NEK3 (Homo sapiens, UniProt P51956)
T29 construct: purchased Reaction Biology Corp
Protocol: as §1

OSR1/OXSR1 = molecular target: T30, OSR1/OXSR1 (Homo sapiens, UniProt O95747)
T30 construct: purchased Reaction Biology Corp
Protocol: as §1

P38d/MAPK13 = molecular target: T31, P38d/MAPK13 (Homo sapiens, UniProt O15264)
T31 construct: purchased Reaction Biology Corp
Protocol: as §1

PDGFRa = molecular target: T32, PDGFRa (Homo sapiens, UniProt P16234)
T32 construct: purchased Reaction Biology Corp
Protocol: as §1

PHKg1 = molecular target: T33, PHKg1 (Homo sapiens, UniProt Q16816)
T33 construct: purchased Reaction Biology Corp
Protocol: as §1

PIM3 = molecular target: T34, PIM3 (Homo sapiens, UniProt Q86V86)
T34 construct: purchased Reaction Biology Corp
Protocol: as §1

PKA = molecular target: T35, PKA (Homo sapiens, UniProt P17612)
T35 construct: purchased Reaction Biology Corp
Protocol: as §1

PLK4/SAK = molecular target: T36, PLK4/SAK (Homo sapiens, UniProt O00444)
T36 construct: purchased Reaction Biology Corp
T36 sequence (O00444 whole entry): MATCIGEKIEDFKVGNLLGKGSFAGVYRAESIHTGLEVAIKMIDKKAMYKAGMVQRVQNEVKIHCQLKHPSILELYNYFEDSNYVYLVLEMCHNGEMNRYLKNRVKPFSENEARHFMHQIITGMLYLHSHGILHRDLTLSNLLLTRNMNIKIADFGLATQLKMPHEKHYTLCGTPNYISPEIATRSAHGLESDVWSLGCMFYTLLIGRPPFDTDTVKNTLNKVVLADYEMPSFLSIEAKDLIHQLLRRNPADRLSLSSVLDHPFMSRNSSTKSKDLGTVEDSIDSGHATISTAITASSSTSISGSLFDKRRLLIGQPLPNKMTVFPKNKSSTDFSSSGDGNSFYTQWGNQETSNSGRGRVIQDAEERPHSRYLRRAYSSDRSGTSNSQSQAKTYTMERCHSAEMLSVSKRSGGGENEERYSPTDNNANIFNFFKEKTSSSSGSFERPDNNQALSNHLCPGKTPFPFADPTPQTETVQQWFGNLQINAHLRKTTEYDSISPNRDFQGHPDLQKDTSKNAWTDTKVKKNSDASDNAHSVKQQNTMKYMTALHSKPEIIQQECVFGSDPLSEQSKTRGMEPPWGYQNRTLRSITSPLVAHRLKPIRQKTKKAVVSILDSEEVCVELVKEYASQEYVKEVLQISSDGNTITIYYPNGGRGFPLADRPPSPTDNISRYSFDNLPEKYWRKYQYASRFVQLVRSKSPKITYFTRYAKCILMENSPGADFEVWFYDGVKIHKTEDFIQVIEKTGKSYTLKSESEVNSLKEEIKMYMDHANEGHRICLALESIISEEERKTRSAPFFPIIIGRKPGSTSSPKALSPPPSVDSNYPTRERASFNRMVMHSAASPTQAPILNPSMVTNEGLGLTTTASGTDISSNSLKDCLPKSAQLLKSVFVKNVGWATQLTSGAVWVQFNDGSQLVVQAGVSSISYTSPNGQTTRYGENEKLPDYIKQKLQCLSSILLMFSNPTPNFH
Protocol: as §1

SBK1 = molecular target: T37, SBK1 (Homo sapiens, UniProt Q52WX2)
T37 construct: purchased Reaction Biology Corp
Protocol: as §1

SGK1 = molecular target: T38, SGK1 (Homo sapiens, UniProt O00141)
T38 construct: purchased Reaction Biology Corp
Protocol: as §1

TAOK2/TAO1 = molecular target: T39, TAOK2/TAO1 (Homo sapiens, UniProt Q9UL54)
T39 construct: purchased Reaction Biology Corp
Protocol: as §1

TNK1 = molecular target: T40, TNK1 (Homo sapiens, UniProt Q13470)
T40 construct: purchased Reaction Biology Corp
Protocol: as §1

WNK3 = molecular target: T41, WNK3 (Homo sapiens, UniProt Q9BYP7)
T41 construct: purchased Reaction Biology Corp
Protocol: as §1

c-MET = molecular target: T42, c-MET (Homo sapiens, UniProt P08581)
T42 construct: purchased Reaction Biology Corp
Protocol: as §1

`Cc1ccc(NC(=O)c2ccc(CN3CCN(C)CC3)c(C(F)(F)F)c2)cc1-c1cnc2sc(N)nc2c1` [6r] gave an inhibition at 1 µM (AKT2) of 14%, an inhibition at 1 µM (BLK) of 84.8% and an inhibition at 1 µM (BRAF) of 97.4%. It also gave an inhibition at 1 µM (BRSK1) of 0%, an inhibition at 1 µM (CAMK2a) of 16% and an inhibition at 1 µM (CDK14/cyclin Y (PFTK1)) of 0%. For the same compound, the inhibition at 1 µM (CDK3/cyclin E) was 14.3%, the inhibition at 1 µM (CDK3/cyclin E2) was 12.4% and the inhibition at 1 µM (CK1g1) was 50.5%. It also gave an inhibition at 1 µM (CLK2) of 38.7%, an inhibition at 1 µM (DAPK1) of 10.1% and an inhibition at 1 µM (DYRK3) of 0%. The inhibition at 1 µM (EPHA2) was 77.4%, the inhibition at 1 µM (EPHA3) was 41.1% and the inhibition at 1 µM (EPHB1) was 65.7%. For the same compound, the inhibition at 1 µM (EPHB4) was 27.3%, the inhibition at 1 µM (FAK/PTK2) was 7.8% and the inhibition at 1 µM (GCK/MAP4K2) was 21.8%. For the same compound, the inhibition at 1 µM (GRK7) was 7.5%, the inhibition at 1 µM (JNK1) was 14% and the inhibition at 1 µM (MARK1) was 0%. It also gave an inhibition at 1 µM (MARK3) of 0%, an inhibition at 1 µM (MEK2) of 7.1% and an inhibition at 1 µM (MLCK/MYLK) of 11%. For the same compound, the inhibition at 1 µM (MLCK2/MYLK2) was 4.8%, the inhibition at 1 µM (MLK4) was 6.5% and the inhibition at 1 µM (MST1/STK4) was 4.3%. The inhibition at 1 µM (MYLK4) was 4.6%, the inhibition at 1 µM (NEK3) was 0% and the inhibition at 1 µM (OSR1/OXSR1) was 5.5%. The inhibition at 1 µM (P38d/MAPK13) was 0%, the inhibition at 1 µM (PDGFRa) was 96.7% and the inhibition at 1 µM (PHKg1) was 19.6%. The inhibition at 1 µM (PIM3) was 3.4%, the inhibition at 1 µM (PKA) was 5.3% and the inhibition at 1 µM (PLK4/SAK) was 10.4%. The inhibition at 1 µM (SBK1) was 6.7%, the inhibition at 1 µM (SGK1) was 11.6% and the inhibition at 1 µM (TAOK2/TAO1) was 61.9%. For the same compound, the inhibition at 1 µM (TNK1) was 36.2%, the inhibition at 1 µM (WNK3) was 7.1% and the inhibition at 1 µM (c-MET) was 2.7%.

Reference: article PMC9817970 (Cancers, 2022)
